Consider 29 molecules from US6897210B2, “Quinazoline derivatives and pharmaceutical compositions containing them” (Zeneca Limited, priority 1996, dated 2005).

Where a name gives a salt, the structure may show the parent alone.

The first data set concerns VEGF receptor tyrosine kinase (Flt, KDR). In words: In vitro receptor tyrosine kinase inhibition test (VEGF receptor). It counts as biochemical. Conditions: VEGF receptor tyrosine kinase compared with EGF receptor tyrosine kinase. An excerpt: (a) In Vitro Receptor Tyrosine Kinase Inhibition Test
This assay determines the ability of a test compound to inhibit tyrosine kinase activity. […] These may then be expressed in a suitable expression system to obtain polypeptide with tyrosine kinase activity. […] This recombinant construct was co-transfected into insect cells (for example Spodoptera frugiperda 21(Sf21)) with viral DNA (eg Pharmingen BaculoGold) to prepare recombinant baculovirus.
For expression of cFlt tyrosine kinase activity, Sf21 cells were infected with plaque-pure cFlt recombinant virus at a multiplicity of infection of 3 and harvested 48 hours later. […] The suspension was centrifuged for 10 minutes at 13,000 rpm at 4° C., the supernatant (enzyme stock) was removed and stored in aliquots at −70° C. Each new batch of stock enzyme was titrated in the assay by dilution with enzyme diluent (100 mM Hepes pH 7.4, 0.2 mM sodium orthovanadate. 0.1% v/v Triton X100, 0.2 mM dithiothreitol). For a typical batch, stock enzyme is diluted 1 in 2000 with enzyme diluent and 50 μl of dilute enzyme is used for each assay well.
A stock of substrate solution was prepared from a random copolymer containing tyrosine, for example Poly (Glu, Ala, Tyr) 6:3:1 (Sigma P3899), stored as 1 mg/ml stock in PBS at −20° C. and diluted 1 in 500 with PBS for plate coating.
On the day of the assay the substrate solution was discarded and the assay plate wells were washed once with PBST (PBS containing 0.05% v/v Tween 20) and once with 50 mM Hepes pH7.4.
Test compounds were diluted with 10% dimethylsulphoxide (DMSO) and 25 μl of diluted compound was transferred to wells in the washed assay plates. “Total” control wells contained 10% DMSO instead of compound. Twenty five microliters of 40 mM manganese(II)chloride containing 8 μM adenosine-5′-triphosphate (ATP) was added to all test wells except “blank” control wells which contained maganese(II)chloride without ATP. To start the reactions 50 μl of freshly diluted enzyme was added to each well and the plates were incubated at room temperature for 20 minutes. The liquid was then discarded and the wells were washed twice with PBST. […] Plates were then incubated for 20-60 minutes at room temperature until the optical density value of the “total” control wells, measured at 405 nm using a plate reading spectrophotometer, was approximately 1.0.
On to `COCCOCCOc1cc2ncnc(Nc3ccc(Cl)cc3F)c2cc1OC.Cl` [Example 5, 4-(4-chloro-2-fluoroanilino)6-methoxy-7-(2(2-methoxyethoxy)ethoxy)quinazoline hydrochloride], for which the “activity against VEGF and EGF receptor tyrosine kinases” value (shortened to “activity”) is recorded as “substantially equivalent activity”.
The same measure, in the same setting: as for `COc1cc2c(Nc3ccc(Cl)cc3F)ncnc2cc1OCC1OCCO1` [Example 6, 4-(4-chloro-2-fluoroanilino)-7-(1,3-dioxolan-2-ylmethoxy)-6-methoxyquinazoline], the entry is “substantially equivalent activity”.
Still for that read-out and setting: for `COc1cc2c(Nc3ccc(Cl)cc3F)ncnc2cc1OCC#CCN1CCOCC1.Cl.O` [Example 10, 4-(4-chloro-2-fluoroanilino)-6-methoxy-7-(4-morpholinobut-2-yn-1-yloxy)quinazoline hydrochloride hydrate] the value was “substantially equivalent activity”.
Same read-out and setting: as for `COc1cc2c(Nc3ccc(Cl)cc3F)ncnc2cc1OCCN1CCSCC1` [Example 12, 4-(4-chloro-2-fluoroanilino)-6-methoxy-7-(2-thiomorpholinoethoxy)quinazoline], the entry is “substantially equivalent activity”.
For the molecule `COc1cc2c(Nc3ccc(Cl)cc3F)ncnc2cc1OCCCS(C)(=O)=O` [Example 16, 4-(4-chloro-2-fluoroanilino)-6-methoxy-7-(3-(methylsulphonyl)propoxy)quinazoline], the “activity” value is “substantially equivalent activity”.
Same read-out and setting: for `COc1cc2c(Nc3ccc(Cl)cc3F)ncnc2cc1OC/C=C/CN1CCCC1.Cl` [Example 17] the value was “substantially equivalent activity”; for `COc1cc2c(Nc3ccc(Cl)cc3F)ncnc2cc1OCCCN1CCCC1=O.Cl` [Example 47, 4-(4-chloro-2-fluoroanilino)-6-methoxy-7-(3-(2-oxopyrrolidin-1-yl)propoxy)quinazoline hydrochloride], “substantially equivalent activity”; for `COc1cc2c(Nc3ccc(Br)cc3F)ncnc2cc1OCCCN1CCCC1=O.Cl` [Example 48], “substantially equivalent activity”.
On to `COc1cc2c(Nc3ccc(Br)cc3F)ncnc2cc1OCCCN(C)S(C)(=O)=O.Cl` [Example 49, 4(4bromo-2-fluoroanilino)-6-methoxy-7-(3([N-methyl-N-methylsulphonyl]amino)propoxy)quinazoline hydrochloride], for which the “activity” value was “substantially equivalent activity”.
On the same count and under the same terms, as for `COc1cc2c(Nc3ccc(Br)cc3F)ncnc2cc1OCCCN1CCC[C@H]1C(N)=O.Cl` [Example 50, (S)-4-(4-bromo-2-fluoroanilino)-7-(3-(2-carbamoylpyrrolidin-1-yl)propoxy)6-methoxyquinazoline hydrochloride], the entry is “substantially equivalent activity”.
On the same count and under the same terms, as for `COCC(=O)N(C)CCOc1cc2ncnc(Nc3ccc(Cl)cc3F)c2cc1OC.Cl` [Example 51, 4-(4-chloro-2-fluoroanilino) methoxy-7-(2-([N-methyl-N-methoxyacetyl]amino)ethoxy)quinazoline hydrochloride], the entry is “substantially equivalent activity”; as for `COc1cc2c(Nc3ccc(Cl)cc3F)ncnc2cc1OCCN1CCOCC1=O.Cl` [Example 52, 4-(4-chloro-2-fluoroanilino)6-methoxy-7-(2-(3-oxomorpholino)ethoxy)quinazoline hydrochloride], “substantially equivalent activity”; as for `COc1cc2c(Nc3ccc(Cl)cc3F)ncnc2cc1OCCOCCN1CCOCC1.Cl` [Example 53, 4-(4-chloro-2-fluoroanilino)-6-methoxy-7-(22-morpholinoethoxy)ethoxy)quinazoline hydrochloride], “substantially equivalent activity”.
On the same count and under the same terms, for `COc1cc2c(Nc3ccc(Cl)cc3F)ncnc2cc1OCCCN1CCC[C@H]1C(N)=O.Cl` [Example 54, (S)-7-(3-(2-carbamoylpyrrolidin-1-yl)propoxy)4-(4-chloro-2-fluoroanilino)-6-methoxyquinazoline hydrochloride] the value was “substantially equivalent activity”.
For the molecule `COc1cc2c(Nc3ccc(Cl)cc3F)ncnc2cc1OCCCN1CC(C)OC(C)C1.Cl` (stereo not drawn) [Example 55, 4-(4-chloro-2-fluoroanilino)7(3(2,6-dimethylmorpholino)propoxy)6-methoxyquinazoline hydrochloride], the “activity” value is reported as “substantially equivalent activity”.
Still for that read-out and setting: as for `Cl.Fc1cc(Cl)ccc1NCOc1ncnc2cc(SCCCN3CCOCC3)ccc12` [Example 56, 4-(4-chloro-2-fluoroanilino)methoxy-7-(3-morpholinopropylthio)quinazoline hydrochloride], the entry is “substantially equivalent activity”; as for `COc1cc2c(Nc3ccc(Cl)cc3F)ncnc2cc1OCCCN(C)S(C)(=O)=O.Cl` [Example 59], “substantially equivalent activity”.
The same measure, in the same setting: as for `COc1cc2c(Nc3ccc(Cl)cc3F)ncnc2cc1OCCOCCN1CCN(C)CC1.Cl` [Example 63], the entry is “substantially equivalent activity”; as for `COc1cc2c(Nc3ccc(Cl)cc3F)ncnc2cc1OCCOCCN1CCCC1.Cl` [Example 64, 4-(4-chloro-2-fluoroanilino)-6-methoxy-7-(2-(2-pyrrolidin-1-ylethoxy)ethoxy)quinazoline hydrochloride], “substantially equivalent activity”; as for `COc1cc2c(Nc3ccc(Cl)cc3F)ncnc2cc1OC/C=C/CN1CCOCC1.Cl` [Example 66, (E)-4-(4-chloro-2-fluoroanilino)-6-methoxy-7-(4-morpholinobut-2-en-1-yloxy)quinazoline hydrochloride], “substantially equivalent activity”.
Same read-out and setting: as for `COc1cc2c(Nc3ccc(Br)cc3F)ncnc2cc1OCCN1CCOCC1=O.Cl` [Example 67, 4-(4-bromo-2-fluoroanilino)-6-methoxy-7-(2-(3 oxomorpholino)ethoxy)quinazoline hydrochloride], the entry is “substantially equivalent activity”; as for `COc1cc2c(Nc3ccc(Br)cc3F)ncnc2cc1OCCN1CCCC1=O.Cl` [Example 68, 4-(4-bromo-2-fluoroanilino)methoxy-7-(2-(2-oxpyrrolidin-1-yl)ethoxy)quinazoline hydrochloride], “substantially equivalent activity”.

Test system in another data set: not given
Assay: not given
Conditions: not given
One may read the melting point as the temperature, or range, at which the solid turns liquid. Turning to `COc1cc2ncnc(Nc3ccc(C)c(O)c3)c2c([N+](=O)[O-])c1OC.Cl`, the melting point fell in the range of 206 to 208 °C.
Regarding `COc1cc2c(Nc3ccc(Cl)cc3F)ncnc2cc1OCCCS(C)(=O)=O` (as salt: hydrochloride) [Example 16, 4-(4-chloro-2-fluoroanilino)-6-methoxy-7-(3-(methylsulphonyl)propoxy)quinazoline], the melting point is above 250 °C.
In the case of `COc1cc2c(Nc3ccc(Cl)cc3F)ncnc2cc1OCC#CCN1CCOCC1.Cl.O` (hydrate or solvate) [Example 10, 4-(4-chloro-2-fluoroanilino)-6-methoxy-7-(4-morpholinobut-2-yn-1-yloxy)quinazoline hydrochloride hydrate], the melting point was in the range of 175 to 178 °C.
Still for that read-out and setting: for `COCCOc1cc2ncnc(Nc3ccc(C)c(OC(C)=O)c3)c2cc1OC` [Example 1, 4-(3-acetoxy-4-methylanilino)-6-methoxy-7-(2-methoxyethoxy)quinazoline] the value was 180 to 183 °C; for `COc1cc2c(Nc3ccc(Cl)cc3F)ncnc2cc1OCCN1CCSCC1` [Example 12, 4-(4-chloro-2-fluoroanilino)-6-methoxy-7-(2-thiomorpholinoethoxy)quinazoline], 181 to 182 °C; for `COc1cc2c(Nc3ccc(Cl)cc3F)ncnc2cc1OCCS(C)(=O)=O` [Example 30, 4-(4-chloro-2-fluoroanilino)-6-methoxy-7-(2-methylsulphonylethoxy)quinazoline], 227 to 230 °C.
The same measure, in the same setting: for `COc1cc2c(Nc3ccc(Br)cc3F)ncnc2cc1OCCCS(C)(=O)=O` [Example 32, 4-(4-bromo-2-fluoroanilino)6-methoxy-7-(3-methylsulphonylpropoxy)quinazoline] the value was above 250 °C; for `COc1cc2c(Nc3ccc(Cl)cc3F)ncnc2cc1OCCN1C(=O)CCCC1=O` [Example 35, 4-(4-chloro-2-fluoroanilino)-7-(2-(2,6-dioxopiperidino)ethoxy)-6-methoxyquinazoline], 202 to 203 °C.
